Measured values taken from patent US10711011B2, “Substituted oxazolidines as anti-bacterial agents” (BUGWORKS RESEARCH, INC., priority 2016, dated 2020).
Values after ≈ are worked out from the molar mass of the structure shown.

What was measured:
K. pneumoniae ATCC 13883 = assay: Minimum Inhibitory Concentration (MIC) in LB media; type: cell-based, Klebsiella pneumoniae; settings: Klebsiella pneumoniae, ATCC13883, LB Media
Excerpt: (§1) The compounds of Formula I are of interest due to their potent antibacterial effects. The ability of the invention compounds disclosed herein to achieve an antibacterial effect may be evaluated with regard to their ability to inhibit the growth of bacterial species like Escherichia coli ATCC 25922, Staphylococcus aureus ATCC 29213, Klebsiella pneumoniae ATCC 13883, Acinetobacter baumannii ATCC 19606, Pseudomonas aurigenosa ATCC 27853, Enterococcus faecalis ATCC 29212 and Enterococcus faecalis ATCC 29212 using an assay based on the following Minimum Inhibitory Concentration (MIC) protocol:
(§2) The test bacteria are grown in Luria Bertani Broth (HIMEDIA M1245), 25 grams of the powder is dissolved in 1000 ml distilled water and sterilized by autoclaving at 15 lbs pressure (121° C.) for 20 minutes. The medium sterility is checked by incubating at 37° C. for a period of 48 h.
(§3) Bacterial cultures that are stored as glycerol stocks at −80° C. are sub cultured on LB agar plates to obtain isolated colonies. A single colony of each strain is cultured in LB broth. The cultures are incubated at 37° C., 200 rpm till they reach an optical density (OD at 600 nm) of 0.8 to 1. […] Test compounds are dissolved in dimethyl sulfoxide (DMSO) to a stock concentration of 4 mg/ml. A twofold dilution series of this DMSO stock is prepared in a 96 well V bottom microtitre plate from rows A to H. A 3 μL volume of these dilutions are transferred to a 96-well flat bottom microtitre assay plate. Controls to monitor the effects of DMSO and media sterility are included. Each well is inoculated with 150 μL of the above diluted culture. The plates are incubated at 37° C. overnight in a humidified incubator. The following morning, the plates are read using a Spectrophotometer at 600 nm wavelength. […] The antibacterial activity (MIC) determined against representative Gram positive (S. aureus, E. faecalis) and Gram negative (E. coli, P. aurigenosa, K. pneumoniae and A. baumannii) pathogen were reported Table 1.

E. coli ATCC 25922 = assay: Minimum Inhibitory Concentration (MIC) in LB media; type: cell-based, Escherichia coli; settings: Escherichia coli, ATCC25922, LB Media
Excerpt: as §1, §2, §3

E. faecalis ATCC 29212 = assay: Minimum Inhibitory Concentration (MIC) in LB media; type: cell-based, Enterococcus faecalis; settings: Enterococcus faecalis, ATCC29212
Excerpt: as §1, §2, §3

P. aurigenosa ATCC 27853 = assay: Minimum Inhibitory Concentration (MIC) in LB media; type: cell-based, Pseudomonas aurigenosa; settings: Pseudomonas, ATCC27853, LB Media
Excerpt: as §1, §2, §3

S. aureus ATCC 29213 = assay: Minimum Inhibitory Concentration (MIC) in LB media; type: cell-based, Staphylococcus aureus; settings: for MIC: Staphylococcus aureus, ATCC29213, LB Media
Excerpt: as §1, §2, §3

A. baumannii ATCC 19606 = assay: Minimum Inhibitory Concentration (MIC) in LB media; type: cell-based, Acinetobacter baumannii; settings: for MIC: Acinetobacter baumannii, ATCC19606, LB Media
Excerpt: as §1, §2, §3

E. coli DNA gyrase = E. coli DNA gyrase (Escherichia coli, UniProt P0AES4+P0AES6); assay: biochemical; settings: supercoiling assay
[1] = test system: A. baumannii (Aba) clinical strains; assay: MIC50 and MIC90 studies using clinical strains (CLSI guidelines); type: cell-based
E. coli clinical strains = assay: as above; type: cell-based
[2] = test system: P. aurigenosa (Pae) clinical strains; assay: as above; type: cell-based
[3] = test system: K. pneumoniae (Kpn) clinical strains; assay: as above; type: cell-based
[4] = Acinetobacter baumannii, Aba, 169 strains
[5] = Escherichia coli, E. coli, 201 strains
[6] = Klebsiella pneumoniae, Kpn, 211 strains

E. coli DNA gyrase, sequence (P0AES4 whole entry, one chain of several): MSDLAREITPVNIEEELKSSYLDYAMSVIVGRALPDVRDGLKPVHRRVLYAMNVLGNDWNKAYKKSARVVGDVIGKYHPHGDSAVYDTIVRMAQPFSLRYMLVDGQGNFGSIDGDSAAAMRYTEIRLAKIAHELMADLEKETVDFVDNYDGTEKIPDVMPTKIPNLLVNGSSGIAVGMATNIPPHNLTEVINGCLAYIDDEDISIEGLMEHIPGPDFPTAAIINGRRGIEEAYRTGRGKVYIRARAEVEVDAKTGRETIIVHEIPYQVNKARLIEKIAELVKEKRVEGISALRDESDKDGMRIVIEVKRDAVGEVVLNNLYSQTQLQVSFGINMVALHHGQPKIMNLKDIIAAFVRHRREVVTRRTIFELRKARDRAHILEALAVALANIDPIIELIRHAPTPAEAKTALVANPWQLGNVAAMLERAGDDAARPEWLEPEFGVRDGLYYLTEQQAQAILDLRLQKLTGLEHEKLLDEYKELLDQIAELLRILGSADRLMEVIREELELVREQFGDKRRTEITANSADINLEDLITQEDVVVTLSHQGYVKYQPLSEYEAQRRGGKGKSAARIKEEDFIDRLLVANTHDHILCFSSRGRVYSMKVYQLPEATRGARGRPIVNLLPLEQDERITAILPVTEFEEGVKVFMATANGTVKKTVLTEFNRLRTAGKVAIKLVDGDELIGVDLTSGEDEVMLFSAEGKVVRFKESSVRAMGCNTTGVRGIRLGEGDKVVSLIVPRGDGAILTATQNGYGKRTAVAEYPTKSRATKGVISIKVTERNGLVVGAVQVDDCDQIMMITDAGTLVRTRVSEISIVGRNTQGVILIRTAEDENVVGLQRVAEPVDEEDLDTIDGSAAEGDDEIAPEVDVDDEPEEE

SMILES | MIC (K. pneumoniae ATCC 13883) [µg/mL] | MIC (E. coli ATCC 25922) [µg/mL] | MIC (E. faecalis ATCC 29212) [µg/mL] | MIC (P. aurigenosa ATCC 27853) [µg/mL] | MIC (S. aureus ATCC 29213) [µg/mL] | MIC (A. baumannii ATCC 19606) [µg/mL] | IC50 (E. coli DNA gyrase) [nM] | further results
Cc1ncc(N2CC(CCNCc3c(F)ccc4c3N(C)C(=O)C4)OC2=O)cc1C#N (stereo not drawn) [Example 5, 5-(5-(2-(((6-Fluoro-1-methyl-2-oxoindolin-7-yl)methyl)amino)ethyl)-2-oxooxazolidin-3-yl)-2-methylnicotinonitrile] | > 80 | 80 (≈ 189 µM) | 80 (≈ 189 µM) | > 80 | 80 (≈ 189 µM) | 40 (≈ 94.5 µM) | – | –
CN1C(=O)Cc2ccc(F)c(CNCCCC3CN(c4ccc5c(n4)NC(=O)CO5)C(=O)O3)c21 (single isomer, unassigned) [Example 9, 6-(5-(3-(((6-fluoro-1-methyl-2-oxoindolin-7-yl)methyl)amino)propyl)-2-oxooxazolidin-3-yl)-2H-pyrido[3,2-b][1,4]oxazin-3(4H)-one] | 0.5 (≈ 1.07 µM) | 0.25 (≈ 0.533 µM) | 0.5 (≈ 1.07 µM) | 2 (≈ 4.26 µM) | – | – | 89 | Minimum Inhibitory Concentration S. aureus ATCC 29213 (S. aureus ATCC 29213; LB Media): 0.13 µg/mL; Minimum Inhibitory Concentration A. baumannii ATCC 19606 (A. baumannii ATCC 19606; LB Media): 0.125 µg/mL
CN1C(=O)Cc2ccc(F)c(CNCCC3CN(c4ccc5c(n4)NC(=O)CO5)C(=O)O3)c21 (stereo not drawn) [Example 2, 6-(5-(2-(((6-Fluoro-1-methyl-2-oxoindolin-7-yl)methyl)amino)ethyl)-2-oxooxazolidin-3-yl)-2H-pyrido[3,2-b][1,4]oxazin-3(4H)-on] | 2.5 (≈ 5.49 µM) | 1.25 (≈ 2.74 µM) | 1.25 (≈ 2.74 µM) | 10 (≈ 22 µM) | 0.6 (≈ 1.32 µM) | 0.3 (≈ 0.659 µM) | 360 | –
CN1C(=O)Cc2ccc(F)c(CNCCC3CN(c4ccc5c(c4)NC(=O)CO5)C(=O)O3)c21 (stereo not drawn) [Example 3, 6-(5-(2-(((6-fluoro-1-methyl-2-oxoindolin-7-yl)methyl)amino)ethyl)-2-oxooxazolidin-3-yl)-2H-benzo[b][1,4]oxazin-3(4H)-one] | 5 (≈ 11 µM) | 1.25 (≈ 2.75 µM) | 1.25 (≈ 2.75 µM) | 20 (≈ 44 µM) | 0.6 (≈ 1.32 µM) | 0.6 (≈ 1.32 µM) | – | –
CN1C(=O)Cc2ccc(F)c(C(O)CNCCC3CN(c4ccc5c(n4)NC(=O)CO5)C(=O)O3)c21 (stereo not drawn) [Example 15, 6-(5-(2-((2-(6-fluoro-1-methyl-2-oxoindolin-7-yl)-2-hydroxyethyl)amino)ethyl)-2-oxooxazolidin-3-yl)-2H-pyrido[3,2-b][1,4]oxazin-3(4H)-one] | 2 (≈ 4.12 µM) | 1 (≈ 2.06 µM) | 2 (≈ 4.12 µM) | 2 (≈ 4.12 µM) | 1 (≈ 2.06 µM) | 4 (≈ 8.24 µM) | 135 | –
CCN1C(=O)Cc2ccc(F)c(CNCCC3CN(c4ccc5c(n4)NC(=O)CO5)C(=O)O3)c21 (stereo not drawn) [Example 7, 6-(5-(2-(((1-Ethyl-6-fluoro-2-oxoindolin-7-yl)methyl)amino)ethyl)-2-oxooxazolidin-3-yl)-2H-pyrido[3,2-b][1,4]oxazin-3(4H)-one] | 5 (≈ 10.7 µM) | 1.25 (≈ 2.66 µM) | 0.6 (≈ 1.28 µM) | 20 (≈ 42.6 µM) | 0.15 (≈ 0.32 µM) | 0.3 (≈ 0.639 µM) | – | –
CN1C(=O)Cc2ncc(F)c(CNCCCC3CN(c4ccc5c(n4)NC(=O)CO5)C(=O)O3)c21 (stereo not drawn) [Example 17, 6-(5-(3-(((6-Fluoro-1-methyl-2-oxo-2,3-dihydro-1H-pyrrolo[3,2-b]pyridin-7-yl)methyl)amino)propyl)-2-oxooxazolidin-3-yl)-2H-pyrido[3,2-b][1,4]oxazin-3(4H)-one] | 2 (≈ 4.25 µM) | 1 (≈ 2.13 µM) | 4 (≈ 8.5 µM) | > 16 | 1 (≈ 2.13 µM) | 0.5 (≈ 1.06 µM) | – | –
O=C(O)c1cn(C2CC2)c2cc(N3CCNCC3)c(F)cc2c1=O [Ciprofloxacin, reference compound] | 0.05 (≈ 0.151 µM) | 0.012 (≈ 0.0362 µM) | 0.4 (≈ 1.21 µM) | 0.1 (≈ 0.302 µM) | 0.4 (≈ 1.21 µM) | 0.4 (≈ 1.21 µM) | – | –
Cn1c(=O)oc2ccc(F)c(CCNCCC3CN(c4ccc5c(n4)NC(=O)CO5)C(=O)O3)c21 (stereo not drawn) [Example 16, 6-(5-(2-((2-(5-Fluoro-3-methyl-2-oxo-2,3-dihydrobenzo[d]oxazol-4-yl)ethyl)amino)ethyl)-2-oxooxazolidin-3-yl)-2H-pyrido[3,2-b][1,4]oxazin-3(4H)-one] | 1 (≈ 2.12 µM) | 0.5 (≈ 1.06 µM) | 4 (≈ 8.48 µM) | 4 (≈ 8.48 µM) | 4 (≈ 8.48 µM) | 0.5 (≈ 1.06 µM) | – | –
CN1C(=O)Cc2cccc(CNCCC3CN(c4ccc5c(n4)NC(=O)CO5)C(=O)O3)c21 (stereo not drawn) [Example 1, 6-(5-(2-(((1-Methyl-2-oxoindolin-7-yl)methyl)amino)ethyl)-2-oxooxazolidin-3-yl)-2H-pyrido[3,2-b][1,4]oxazin-3(4H)-one] | 10 (≈ 22.9 µM) | 2.5 (≈ 5.71 µM) | 5 (≈ 11.4 µM) | 40 (≈ 91.4 µM) | 5 (≈ 11.4 µM) | 0.6 (≈ 1.37 µM) | – | –
CN1C(=O)C(C)(C)c2ccc(F)c(CNCCC3CN(c4ccc5c(n4)NC(=O)CO5)C(=O)O3)c21 (stereo not drawn) [Example 4, 6-(5-(2-(((6-fluoro-1,3,3-trimethyl-2-oxoindolin-7-yl)methyl)amino)ethyl)-2-oxooxazolidin-3-yl)-2H-pyrido[3,2-b][1,4]oxazin-3(4H)-one] | > 80 | > 80 | > 80 | > 80 | > 80 | > 80 | 14000 | –
C[C@@H](O)[C@H]1C(=O)N2C(C(=O)O)=C(S[C@@H]3CN[C@H](C(=O)N(C)C)C3)[C@H](C)[C@H]12 [Meropenem, reference compound] | – | – | – | – | – | – | – | MIC ATCC19606 ([1]; Aba reference strain ATCC19606, unit inferred): 0.5 µg/mL (≈ 1.3 µM); Minimum (MIC) ([1]; Aba, 169 strains, unit not given, in µg/mL): 0.03125; MIC50 [1, 4]: 8 µg/mL (≈ 20.9 µM); MIC90 [1, 4]: 32 µg/mL (≈ 83.4 µM); MIC ATCC25922 (E. coli clinical strains; E. coli reference strain ATCC25922, no unit in this row (MIC50/MIC90 rows: μg/ml)): 0.06 µg/mL (≈ 0.156 µM); Minimum (MIC) (E. coli clinical strains; E. coli, 201 strains, unit inferred): 0.03 µg/mL; MIC50 (E. coli clinical strains; [5]): 0.06 µg/mL (≈ 0.156 µM); MIC90 (E. coli clinical strains; [5]): 4 µg/mL (≈ 10.4 µM); MIC ATCC27853 ([2]; Pae reference strain ATCC27853, unit inferred): 0.5 µg/mL (≈ 1.3 µM); MIC50 ([2]; Pae, 215 strains): 2 µg/mL (≈ 5.22 µM); MIC90 ([2]; Pae, 215 strains): 8 µg/mL (≈ 20.9 µM); Minimum (MIC) ([2]; Pae, 215 strains, unit not given, in µg/mL): 0.03; MIC50 [3, 6]: 1 µg/mL (≈ 2.61 µM); MIC90 [3, 6]: 16 µg/mL (≈ 41.7 µM); MIC ATCC13883 ([3]; Kpn reference strain ATCC13883, unit inferred): 0.06 µg/mL (≈ 0.156 µM); Minimum (MIC) ([3]; Kpn, 211 strains, unit inferred): 0.03 µg/mL
CN1C(=O)Cc2ccc(F)c(CCNCCC3CN(c4ccc5c(n4)NC(=O)CO5)C(=O)O3)c21 (racemic) [Example 11, 6-(5-(2-((2-(6-fluoro-1-methyl-2-oxoindolin-7-yl)ethyl)amino)ethyl)-2-oxooxazolidin-3-yl)-2H-pyrido[3,2-b][1,4]oxazin-3(4H)-one] | 0.125 (≈ 0.266 µM) | 0.06 (≈ 0.128 µM) | 0.13 (≈ 0.277 µM) | 0.5 (≈ 1.07 µM) | 0.03 (≈ 0.0639 µM) | 0.03 (≈ 0.0639 µM) | 55 | –
